Key:
[1] = system: C57BL/6J mice on high fat diet; experiment: Systemic insulin sensitivity (fasting glucose, insulin, ITT, HOMA-IR) in HFD mice; type: in vivo, mouse; conditions: butyrate 5% w/w in HFD
Method: ITT was conducted by intra-peritoneal (i.p.) injection of insulin (I9278, Sigma) at 0.75 U/kg body weight in mice after a 4 hour fast as previously described (15). Blood glucose was monitored in the tail vein blood using the FreeStyle blood glucose monitoring system (TheraSense, Phoenix, Ariz.).
To test this possibility, systemic insulin sensitivity was analyzed using fasting glucose, insulin, and insulin tolerance.
Tail vein blood was used for the glucose assay after 16 hr fasting during the period of HFD feeding. […] The insulin was determined at 16 weeks on HFD in fasting condition with Lincoplex kit (#MADPK-71k-03, Linco Research Inc., St. Charles, Mo.). […] ITT was done at 12 weeks on HFD (at 16 weeks of age). In FIGS. 2A-2C, data are presented as means±SE (N=9). *P<0.05, **P<0.001 by Student's t test. […] After an overnight fast, blood glucose and insulin were measured and used to determine insulin sensitivity through HOMA IR (IR=fasting insulin […] X fasting glucose mg/dL÷405). Values are the means±SE (N=8 mice). ** P<0.001. […] The gastrocnemius muscle was isolated after insulin (0.75 U/kg) injection in mice for 30 min and used to prepare the whole cell lysate for an immunoblot. The mice on HFD for 13 weeks were used in the signaling assay. FIG. 2F illustrates the degree of the blot signal in the panel 2E, by quantifying the signal and normalizing with protein loading. **P<0.001 (n=2).

[2] = system: IRS-1 and Akt phosphorylation; experiment: Insulin signaling immunoblot in gastrocnemius muscle after insulin injection; type: in vivo, mouse; conditions: butyrate 5% w/w in HFD 13 weeks, 30 min after insulin 0.75 U/kg
From the text: Fresh fat and muscles were collected and frozen in liquid nitrogen. The whole cell lysate protein was extract in lysis buffer with sonication and analyzed in western blot as described elsewhere (16). Antibodies were used in study of myoglobin (sc-25607, Santa Cruz), PGC-1 (sc-13068, Santa Cruz), Tubulin (ab7291, Abcam), myosin (M8421, Sigma), pAMPK (Thr 172, #2531, Cell signaling) and p-p38 (sc-7975, Santa Cruz). To detect multiple signals from one membrane, the membrane was stripped with a stripping buffer. Intensity of the immunoblot signal was quantified using a computer program, ImageJ 1.37v (NIH). The mean values of results from three experiments (6 mice each group) were presented. The antibodies to PGC-1α and UCP-1 were from Dr. Thomas Gettys at Pennington Biomedical Research Center, Baton Rouge, La.
Tail vein blood was used for the glucose assay after 16 hr fasting during the period of HFD feeding. […] The insulin was determined at 16 weeks on HFD in fasting condition with Lincoplex kit (#MADPK-71k-03, Linco Research Inc., St. Charles, Mo.). […] After an overnight fast, blood glucose and insulin were measured and used to determine insulin sensitivity through HOMA IR (IR=fasting insulin […] X fasting glucose mg/dL÷405). […] FIG. 2F illustrates the degree of the blot signal in the panel 2E, by quantifying the signal and normalizing with protein loading. **P<0.001 (n=2).

[3] = system: C57BL/6J mice on high fat diet; experiment: Butyrate at 2.5% w/w in HFD; type: in vivo, mouse; conditions: butyrate 2.5% w/w in HFD
Method: Sodium butyrate (#303410, Sigma) was tested at two dosages, 5% and 2.5% w/w in HFD. The metabolic effects presented above were from 5%. […] Insulin sensitivity at 12 weeks as indicated by insulin tolerance test (ITT) and glucose tolerance test (GTT) at 13 weeks was higher in the butyrate group than that of the control group (FIGS. 12C and 12D). For the glucose tolerance test, after an overnight fast, 2.5 g/kg glucose was injected intraperitoneally. Blood glucose was measured as described above at 0, 30, 60 and 120 min after injection. […] show values as the means±SE (N=8 in each group), and * indicates p<0.05.

[4] = system: islet cells; conditions: isolated rat islet cells; cited from earlier work
[5] = system: pigs; conditions: dietary; cited from earlier work
[6] = system: C57BL/6J mice on high fat diet; experiment: Blood lipids and TNF-a in HFD mice; type: in vivo, mouse
Method: The serum fatty acids including butyrate were examined using a protocol described elsewhere (18), and as described below in Example 10. The fatty acids in feces were determined using a protocol as described by Schwarz (19). Triglyceride and cholesterol were measured in the whole blood with the Cardiochek portable test system.
Levels of cholesterol, total triglyceride and inflammation cytokines (TNF-a) were elevated in the blood of dietary obese mice. With 5% SB supplementation, these risk factors for cardiovascular disease were all reduced in the mice (FIG. 10A-E). Blood samples were taken from control and butyrate-supplemented mice at 10 weeks on HFD. The cholesterol, HDL (high density lipoprotein), LDL (low density lipoprotein), and triglyceride were measured with cholesterol reagent kit (cat #. 80015, Rainchem, San Diego, Calif.), and the Cardiochek whole blood test system (Polymer Technology Systems, Inc. IN). Data are presented as means±SEM (n=6). **P<0.001 by Student's t test.

[7] = system: HDAC; experiment: Histone Deacetylase Assay Kit, inhibition by butyrate isoforms; conditions: Histone Deacetylase Assay Kit (Upstate), FIG. 8
From the text: Several isoforms of butyrate were purchased (Sigma Aldrich Chemicals, St. Louis, Mo.) and tested for inhibitory activity of HDAC, using a Histone Deacetylase Assay Kit (Upstate Biotechnology, Lake Placid, N.Y.).

With `CCCC(=O)[O-].[Na+]` [sodium butyrate] the “insulin tolerance test (ITT) response” value ([1]; 12 weeks, insulin 0.75 U/kg i.p., 30, 60, 120 and 180 min) was “much better response to insulin at all time points”, the “fasting insulin, lower than control” value ([1]; 16 weeks on HFD) was 50% and the “fasting glucose (HFD-induced increase)” value ([1]; after 10 weeks, 16 hr fasting) was “this increase was not observed”. The “HOMA-IR, lower than control” value ([1]; overnight fast) was 60%, the “threonine 308 phosphorylation of Akt” value [2] was “increased” and the “tyrosine 632 (Y632) phosphorylation of IRS-1” value [2] was “increased”. The body weight ([3]; 12 weeks) was “reduced”, the “insulin sensitivity by insulin tolerance test (ITT)” value ([3]; 12 weeks) was “higher” and the fat content ([3]; 12 weeks, NMR) was “reduced”. For the same compound, the “insulin sensitivity by glucose tolerance test (GTT)” value ([3]; 13 weeks, 2.5 g/kg glucose i.p.) was “higher”, the “cell viability (islet cells)” value [4] was “decrease” and the “insulin release in the presence of glucose (islet cells)” value [4] was “decrease”. For the same compound, the “daily body mass gain” value [5] was “increase”, the “LDL, reduction vs control” value ([6]; 5% SB in HFD, 10 weeks, blood) was 41% and the “Triglyceride, reduction vs control” value ([6]; 5% SB in HFD, 10 weeks, blood) was 40%. For the same compound, the “total cholesterol, reduction vs control” value ([6]; 5% SB in HFD, 10 weeks, blood) was 25%, the “TNF-a, reduction vs control” value ([6]; 5% SB in HFD, 10 weeks, blood, Luminex) was 70% and the “blood total fatty acids” value ([6]; butyrate 5% w/w in HFD) was “decreased”. The “inhibitory activity of HDAC” value [7] was “inhibited HDAC”.
